The compounds below were run against BTK wild type (Homo sapiens (Human), UniProt Q06187) (assay: Inhibition assay of BTK kinase activity (HTRF)). Details: not given.
Format: biochemical
Procedure: Inhibition Assay of BTK Kinase Activity:
The enzyme reaction mixture of BTK wild type standard HTRF assay contained 1 nM BTK wild type, 1 μM biotin-TK1 peptide, and 30 μM ATP in a buffer. The enzyme reaction were carried out at room temperature for 60 minutes. […] The plates were incubated at room temperature for 60 minutes and then read in the Envision plate reader.

Sequence of BTK wild type (Q06187 whole entry): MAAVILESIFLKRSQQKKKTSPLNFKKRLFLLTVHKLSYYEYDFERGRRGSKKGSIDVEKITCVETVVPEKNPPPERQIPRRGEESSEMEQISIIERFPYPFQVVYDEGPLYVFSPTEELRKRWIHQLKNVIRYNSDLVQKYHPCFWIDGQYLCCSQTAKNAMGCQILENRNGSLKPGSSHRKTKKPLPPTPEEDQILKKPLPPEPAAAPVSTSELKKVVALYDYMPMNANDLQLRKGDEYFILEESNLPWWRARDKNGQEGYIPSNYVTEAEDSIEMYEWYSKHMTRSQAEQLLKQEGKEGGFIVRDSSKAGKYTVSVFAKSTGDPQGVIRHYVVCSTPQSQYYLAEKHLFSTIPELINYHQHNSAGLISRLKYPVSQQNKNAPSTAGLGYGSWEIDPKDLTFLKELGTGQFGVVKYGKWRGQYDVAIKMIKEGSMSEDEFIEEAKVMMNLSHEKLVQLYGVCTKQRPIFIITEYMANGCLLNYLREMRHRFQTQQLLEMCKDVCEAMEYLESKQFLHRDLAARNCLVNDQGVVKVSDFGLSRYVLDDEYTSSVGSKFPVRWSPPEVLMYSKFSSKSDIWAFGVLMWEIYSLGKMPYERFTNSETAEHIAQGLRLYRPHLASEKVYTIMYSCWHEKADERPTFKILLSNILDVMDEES

`Nc1ncnc2c1c(-c1ccc(Oc3c(F)c(F)cc(F)c3F)cc1F)nn2[C@@H]1CCN(C(=O)CCl)C1` [Compound 75, 1-((R)-3-(4-amino-3-(2-fluoro-4-(2,3,5,6-tetrafluorophenoxy)phenyl)-1H-pyrazolo[3,4-d]pyrimidin-1-yl)pyrrolidin-1-yl)-2-chloroethanone] was tested, and the IC50 was < 10 nM.

Same assay, conditions: all compounds with IC50 of less 10 nM; read-out: IC50 (BTK)

`Nc1ncnc2c1c(-c1ccc(Oc3c(F)c(F)cc(F)c3F)cc1F)nn2C1CCCN(C(=O)CCl)C1` (stereo not shown) [Compound 61, 1-(3-(4-amino-3-(2-fluoro-4-(2,3,5,6-tetrafluorophenoxy)phenyl)-1H-pyrazolo[3,4-d]pyrimidin-1-yl)piperidin-1-yl)-2-chloroethanone] and `CCOC(=O)/C=C/CNC(=O)N1CCCC(n2nc(-c3ccc(Oc4c(F)c(F)cc(F)c4F)cc3F)c3c(N)ncnc32)C1` (stereo not shown) [Compound 74, (E)-ethyl 4-(3-(4-amino-3-(2-fluoro-4-(2,3,5,6-tetrafluorophenoxy)phenyl)-1H-pyrazolo[3,4-d]pyrimidin-1-yl)piperidine-1-carboxamido)but-2-enoate] cannot be ordered by IC50: < 10 nM for the first, < 10 nM for the second.

`C=CC(=O)N1CC[C@@H](n2nc(-c3ccc(C(=O)c4ccccc4F)cc3F)c3c(N)ncnc32)C1` [Compound 72, 1-((R)-3-(4-amino-3-(2-fluoro-4-(2-fluorobenzoyl)phenyl)-1H-pyrazolo[3,4-d]pyrimidin-1-yl)pyrrolidin-1-yl)prop-2-en-1-one] was tested, and the IC50 was < 10 nM.

Same assay, conditions: read-out: BTK IC50

Compared with `Nc1ncnc2c1c(-c1ccc(Oc3c(F)c(F)cc(F)c3F)cc1F)nn2[C@@H]1CCN(C(=O)CCCl)C1` [Compound 58, 1-((R)-3-(4-amino-3-(2-fluoro-4-(2,3,5,6-tetrafluorophenoxy)phenyl)-1H-pyrazolo[3,4-d]pyrimidin-1-yl)pyrrolidin-1-yl)-3-chloropropan-1-one], `Nc1ncnc2c1c(-c1ccc(Oc3c(F)c(F)cc(F)c3F)cc1F)nn2[C@@H]1CCN(C(=O)CCl)C1` [Compound 75, 1-((R)-3-(4-amino-3-(2-fluoro-4-(2,3,5,6-tetrafluorophenoxy)phenyl)-1H-pyrazolo[3,4-d]pyrimidin-1-yl)pyrrolidin-1-yl)-2-chloroethanone] is 49-fold lower in IC50: 148 nM for the first, 3 nM for the second. The second is the more potent here.

First: Nc1ncnc2c1c(-c1ccc(Oc3c(F)c(F)cc(F)c3F)cc1F)nn2C1CCCN(C(=O)c2c[nH]cn2)C1 (stereo not shown) [Compound 59, (3-(4-amino-3-(2-fluoro-4-(2,3,5,6-tetrafluorophenoxy)phenyl)-1H-pyrazolo[3,4-d]pyrimidin-1-yl)piperidin-1-yl)(1H-imidazol-4-yl)methanone]
Second: Nc1ncnc2c1c(-c1ccc(Oc3c(F)c(F)cc(F)c3F)cc1F)nn2C1CCCN(C(=O)c2cccnc2)C1 (stereo not shown) [Compound 60, (3-(4-amino-3-(2-fluoro-4-(2,3,5,6-tetrafluorophenoxy)phenyl)-1H-pyrazolo[3,4-d]pyrimidin-1-yl)piperidin-1-yl)(pyridin-3-yl)methanone]
The IC50 of the first is 3.3-fold lower: 174 nM for the first, 576 nM for the second.

First: Nc1ncnc2c1c(-c1ccc(Oc3c(F)c(F)cc(F)c3F)cc1F)nn2C1CCCN(C(=O)CCl)C1 (stereo not shown) [Compound 61, 1-(3-(4-amino-3-(2-fluoro-4-(2,3,5,6-tetrafluorophenoxy)phenyl)-1H-pyrazolo[3,4-d]pyrimidin-1-yl)piperidin-1-yl)-2-chloroethanone]
Second: CN(C)CC(=O)N1CCCC(n2nc(-c3ccc(Oc4c(F)c(F)cc(F)c4F)cc3F)c3c(N)ncnc32)C1 (stereo not shown) [Compound 62, 1-(3-(4-amino-3-(2-fluoro-4-(2,3,5,6-tetrafluorophenoxy)phenyl)-1H-pyrazolo[3,4-d]pyrimidin-1-yl)piperidin-1-yl)-2-(dimethylamino)ethanone]
The IC50 of the first is 260-fold lower: 0.8 nM for the first, 207 nM for the second. The first is the more potent here.

Compared with `Nc1ncnc2c1c(-c1ccc(Oc3c(F)c(F)cc(F)c3F)cc1F)nn2C1CCCN(C(=O)C2CNC(=O)S2)C1` (stereo not shown) [Compound 63, 5-(3-(4-amino-3-(2-fluoro-4-(2,3,5,6-tetrafluorophenoxy)phenyl)-1H-pyrazolo[3,4-d]pyrimidin-1-yl)piperidine-1-carbonyl)thiazolidin-2-one], `Nc1ncnc2c1c(-c1ccc(Oc3c(F)c(F)cc(F)c3F)cc1F)nn2C1CCCN(C(=O)C(=O)C2CC2)C1` (stereo not shown) [Compound 81, 1-(3-(4-amino-3-(2-fluoro-4-(2,3,5,6-tetrafluorophenoxy)phenyl)-1H-pyrazolo[3,4-d]pyrimidin-1-yl)piperidin-1-yl)-2-cyclopropylethane-1,2-dione] is 4.9-fold higher in IC50: 454 nM for the first, 2240 nM for the second. The first is the more potent here.

Going from `C=C(C(=O)N1CCCC(n2nc(-c3ccc(Oc4c(F)c(F)cc(F)c4F)cc3F)c3c(N)ncnc32)C1)C(F)(F)F` (stereo not shown) [Compound 64, 1-(3-(4-amino-3-(2-fluoro-4-(2,3,5,6-tetrafluorophenoxy)phenyl)-1H-pyrazolo[3,4-d]pyrimidin-1-yl)piperidin-1-yl)-2-(trifluoromethyl)prop-2-en-1-one] to `Nc1ncnc2c1c(-c1ccc(Oc3c(F)c(F)cc(F)c3F)cc1F)nn2C1CCCN(C(=O)CC(=O)C(F)(F)F)C1` (stereo not shown) [Compound 65, 1-(3-(4-amino-3-(2-fluoro-4-(2,3,5,6-tetrafluorophenoxy)phenyl)-1H-pyrazolo[3,4-d]pyrimidin-1-yl)piperidin-1-yl)-4,4,4-trifluorobutane-1,3-dione], the IC50 rises from 6 nM to 119 nM (20-fold).

First: O=C(CC(=O)C(F)(F)F)Nc1ncnc2c1c(-c1ccc(Oc3c(F)c(F)cc(F)c3F)cc1F)nn2C1CCCNC1 (stereo not shown) [Compound 66, 4,4,4-trifluoro-N-(3-(2-fluoro-4-(2,3,5,6-tetrafluorophenoxy)phenyl)-1-(piperidin-3-yl)-1H-pyrazolo[3,4-d]pyrimidin-4-yl)-3-oxobutanamide]
Second: Nc1ncnc2c1c(-c1ccc(Oc3c(F)c(F)cc(F)c3F)cc1F)nn2[C@@H]1CCN(C(=O)C(=O)C(F)(F)F)C1 [Compound 77, 1-((R)-3-(4-amino-3-(2-fluoro-4-(2,3,5,6-tetrafluorophenoxy)phenyl)-1H-pyrazolo[3,4-d]pyrimidin-1-yl)pyrrolidin-1-yl)-3,3,3-trifluoropropane-1,2-dione]
The IC50 of the first is 3.6-fold higher: 729 nM for the first, 201 nM for the second. The second is the more potent here.

First: Nc1ncnc2c1c(-c1ccc(Oc3c(F)c(F)cc(F)c3F)cc1F)nn2C1CCCN(C(=O)CC(=O)C2CC2)C1 (stereo not shown) [Compound 67, 1-(3-(4-amino-3-(2-fluoro-4-(2,3,5,6-tetrafluorophenoxy)phenyl)-1H-pyrazolo[3,4-d]pyrimidin-1-yl)piperidin-1-yl)-3-cyclopropylpropane-1,3-dione]
Second: Nc1ncnc2c1c(-c1ccc(Oc3c(F)c(F)cc(F)c3F)cc1F)nn2[C@@H]1CCN(C(=O)C(=O)C2CC2)C1 [Compound 78, 1-((R)-3-(4-amino-3-(2-fluoro-4-(2,3,5,6-tetrafluorophenoxy)phenyl)-1H-pyrazolo[3,4-d]pyrimidin-1-yl)pyrrolidin-1-yl)-2-cyclopropylethane-1,2-dione]
The IC50 of the first is 3.2-fold lower: 586 nM for the first, 1900 nM for the second. The first is the more potent here.

Going from `C=C(CN1CCCC(n2nc(-c3ccc(Oc4c(F)c(F)cc(F)c4F)cc3F)c3c(N)ncnc32)C1)C(=O)OCC` (stereo not shown) [Compound 68, ethyl 2-((3-(4-amino-3-(2-fluoro-4-(2,3,5,6-tetrafluorophenoxy)phenyl)-1H-pyrazolo[3,4-d]pyrimidin-1-yl)piperidin-1-yl)methyl)acrylate] to `C=C(CN1CCCC(n2nc(-c3ccc(Oc4c(F)c(F)cc(F)c4F)cc3F)c3c(N)ncnc32)C1)C(=O)NC` (stereo not shown) [Compound 69, 2-((3-(4-amino-3-(2-fluoro-4-(2,3,5,6-tetrafluorophenoxy)phenyl)-1H-pyrazolo[3,4-d]pyrimidin-1-yl)piperidin-1-yl)methyl)-N-methylacrylamide], the IC50 falls from 279 nM to 52 nM (5.4-fold). The second is the more potent here.

Compared with `C=C(C#N)CN1CCCC(n2nc(-c3ccc(Oc4c(F)c(F)cc(F)c4F)cc3F)c3c(N)ncnc32)C1` (stereo not shown) [Compound 70, 2-((3-(4-amino-3-(2-fluoro-4-(2,3,5,6-tetrafluorophenoxy)phenyl)-1H-pyrazolo[3,4-d]pyrimidin-1-yl)piperidin-1-yl)methyl)acrylonitrile], `CC(C)C(=O)C(=O)N1CC[C@@H](n2nc(-c3ccc(Oc4c(F)c(F)cc(F)c4F)cc3F)c3c(N)ncnc32)C1` [Compound 79, 1-((R)-3-(4-amino-3-(2-fluoro-4-(2,3,5,6-tetrafluorophenoxy)phenyl)-1H-pyrazolo[3,4-d]pyrimidin-1-yl)pyrrolidin-1-yl)-3-methylbutane-1,2-dione] is 98-fold higher in IC50: 17 nM for the first, 1660 nM for the second. The first is the more potent here.

Compared with `C=CC(=O)N1CC[C@@H](n2nc(-c3ccc(C(=O)c4ccccc4F)cc3F)c3c(N)ncnc32)C1` [Compound 72, 1-((R)-3-(4-amino-3-(2-fluoro-4-(2-fluorobenzoyl)phenyl)-1H-pyrazolo[3,4-d]pyrimidin-1-yl)pyrrolidin-1-yl)prop-2-en-1-one], `CC(C)(CO)C(=O)C(=O)N1CC[C@@H](n2nc(-c3ccc(Oc4c(F)c(F)cc(F)c4F)cc3F)c3c(N)ncnc32)C1` [Compound 80, 1-((R)-3-(4-amino-3-(2-fluoro-4-(2,3,5,6-tetrafluorophenoxy)phenyl)-1H-pyrazolo[3,4-d]pyrimidin-1-yl)pyrrolidin-1-yl)-4-hydroxy-3,3-dimethylbutane-1,2-dione] is 1300-fold higher in IC50: 1 nM for the first, 1280 nM for the second.

Compared with `CCOC(=O)/C=C/CNC(=O)N1CCCC(n2nc(-c3ccc(Oc4c(F)c(F)cc(F)c4F)cc3F)c3c(N)ncnc32)C1` (stereo not shown) [Compound 74, (E)-ethyl 4-(3-(4-amino-3-(2-fluoro-4-(2,3,5,6-tetrafluorophenoxy)phenyl)-1H-pyrazolo[3,4-d]pyrimidin-1-yl)piperidine-1-carboxamido)but-2-enoate], `CNC(=O)/C=C/CNC(=O)N1CC[C@@H](n2nc(-c3ccc(Oc4c(F)c(F)cc(F)c4F)cc3F)c3c(N)ncnc32)C1` [Compound 76, (3R)-3-(4-amino-3-(2-fluoro-4-(2,3,5,6-tetrafluorophenoxy)phenyl)-1H-pyrazolo[3,4-d]pyrimidin-1-yl)-N-(4-(methylamino)-4-oxobut-2-enyl)pyrrolidine-1-carboxamide] is 9-fold higher in IC50: 3 nM for the first, 27 nM for the second.

`C=CC(=O)NCCn1nc(-c2ccc(Oc3c(F)c(F)cc(F)c3F)cc2F)c2c(N)ncnc21` [Compound 82, N-(2-(4-amino-3-(2-fluoro-4-(2,3,5,6-tetrafluorophenoxy)phenyl)-1H-pyrazolo[3,4-d]pyrimidin-1-yl)ethyl)acrylamide] and `C=CC(=O)N(C)CCn1nc(-c2ccc(Oc3c(F)c(F)cc(F)c3F)cc2F)c2c(N)ncnc21` [Compound 85, N-(2-(4-amino-3-(2-fluoro-4-(2,3,5,6-tetrafluorophenoxy)phenyl)-1H-pyrazolo[3,4-d]pyrimidin-1-yl)ethyl)-N-methylacrylamide] are within 1.5-fold of each other in IC50: 25 nM for the first, 17 nM for the second.

Going from `C=CC(=O)NC(C)C(C)n1nc(-c2ccc(Oc3c(F)c(F)cc(F)c3F)cc2F)c2c(N)ncnc21` (stereo not shown) [Compound 83, N-(3-(4-amino-3-(2-fluoro-4-(2,3,5,6-tetrafluorophenoxy)phenyl)-1H-pyrazolo[3,4-d]pyrimidin-1-yl)butan-2-yl)acrylamide] to `C=CC(=O)NCC(C)n1nc(-c2ccc(Oc3c(F)c(F)cc(F)c3F)cc2F)c2c(N)ncnc21` (stereo not shown) [Compound 84, N-(2-(4-amino-3-(2-fluoro-4-(2,3,5,6-tetrafluorophenoxy)phenyl)-1H-pyrazolo[3,4-d]pyrimidin-1-yl)propyl)acrylamide], the IC50 falls from 75 nM to 16 nM (4.7-fold). The second is the more potent here.

Work on `C=CC(=O)N(C)CCCn1nc(-c2ccc(Oc3c(F)c(F)cc(F)c3F)cc2F)c2c(N)ncnc21` [Compound 86, N-(3-(4-amino-3-(2-fluoro-4-(2,3,5,6-tetrafluorophenoxy)phenyl)-1H-pyrazolo[3,4-d]pyrimidin-1-yl)propyl)-N-methylacrylamide] yielded an IC50 of 8 nM.
